Results reported in ChEMBL document CHEMBL4616696, “Construction and Evaluation of Molecular Models: Guide and Design of Novel SE Inhibitors” (ACS Med Chem Lett, 2020).
Values after ≈ are worked out from the molar mass of the structure shown. Active and inactive are the calls of the source. No cut-off for these calls is given here.

Key:
[1] = system: Nakaseomyces glabratus; experiment: Antifungal activity against Candida glabrata ATCC 0001 assessed as reduction in fungal growth by NCCLS method; format: functional
[2] = system: Aspergillus fumigatus; experiment: Antifungal activity against Aspergillus fumigatus KM8001 assessed as reduction in fungal growth by NCCLS method; format: functional
[3] = system: Pichia kudriavzevii; experiment: Antifungal activity against Candida krusei ATCC 6258 assessed as reduction in fungal growth by NCCLS method; format: functional
[4] = system: Candida albicans; experiment: Antifungal activity against Candida albicans ATCC 10231 assessed as reduction in fungal growth by NCCLS method; format: functional
[5] = system: Candida tropicalis; experiment: Antifungal activity against Candida tropicalis ATCC 1369 assessed as reduction in fungal growth by NCCLS method; format: functional
[6] = system: Candida albicans; experiment: Antifungal activity against fluconazole-resistant Candida albicans 632 assessed as reduction in fungal growth by NCCLS method; format: functional
[7] = system: Candida albicans; experiment: Antifungal activity against fluconazole-resistant Candida albicans CaR assessed as reduction in fungal growth by NCCLS method; format: functional
[8] = system: Candida albicans; experiment: Antifungal activity against fluconazole-resistant Candida albicans 901 assessed as reduction in fungal growth by NCCLS method; format: functional
[9] = system: Candida albicans; experiment: Antifungal activity against fluconazole-resistant Candida albicans 904 assessed as reduction in fungal growth by NCCLS method; format: functional
[10] = system: Candida albicans; experiment: Antifungal activity against fluconazole-resistant Candida albicans 17# assessed as reduction in fungal growth by NCCLS method; format: functional
[11] = Stability in human plasma assessed as compound remaining incubated for 60 mins; format: ADME, cell-free; conditions: read-out: Stability
[12] = Stability in human plasma assessed as compound remaining incubated for 120 mins; format: ADME, cell-free; conditions: read-out: Stability
[13] = biological target: T1, Squalene epoxidase ERG1 (Candida albicans) (UniProt Q92206); experiment: Inhibition of SE in Candida albicans ATCC SC5314 assessed as inhibition of ergosterol biosynthesis by measuring increase in squalene content at 4 ug/ml incubated for 16 hrs by LC-MS analysis relative to control; parameters: scale not given: the % may be the effect or the level left
T1 sequence (whole entry): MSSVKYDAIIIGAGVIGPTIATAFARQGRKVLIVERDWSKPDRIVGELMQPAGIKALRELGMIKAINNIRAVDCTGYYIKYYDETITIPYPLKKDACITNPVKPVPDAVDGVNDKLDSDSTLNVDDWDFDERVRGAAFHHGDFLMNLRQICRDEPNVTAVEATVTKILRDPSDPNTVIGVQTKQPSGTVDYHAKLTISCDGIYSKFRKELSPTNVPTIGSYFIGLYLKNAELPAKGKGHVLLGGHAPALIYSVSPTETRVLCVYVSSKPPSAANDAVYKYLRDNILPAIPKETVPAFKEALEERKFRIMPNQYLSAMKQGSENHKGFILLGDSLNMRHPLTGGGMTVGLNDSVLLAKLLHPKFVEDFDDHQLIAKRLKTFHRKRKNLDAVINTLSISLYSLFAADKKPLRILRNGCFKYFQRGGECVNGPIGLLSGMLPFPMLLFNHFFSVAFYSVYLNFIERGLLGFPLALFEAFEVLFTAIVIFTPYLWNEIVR

[14] = system: Candida albicans; experiment: Antifungal activity against Candida albicans ATCC SC5314 assessed as cell membrane disruption at 4 ug/ml measured upto 48 hrs by TEM analysis; format: functional, organism-based
[15] = biological target: T1, Squalene epoxidase ERG1 (Candida albicans); experiment: Inhibition of SE in Candida albicans ATCC SC5314 assessed as inhibition of ergosterol biosynthesis by measuring increase in squalene content at 0.125 ug/ml incubated for 16 hrs by LC-MS analysis relative to control; parameters: scale not given: the % may be the effect or the level left
[16] = biological target: T1, Squalene epoxidase ERG1 (Candida albicans); experiment: Inhibition of SE in Candida albicans ATCC SC5314 assessed as inhibition of ergosterol biosynthesis by measuring ergosterol content at 4 ug/ml incubated for 16 hrs by LC-MS analysis; parameters: scale not given: the % may be the effect or the level left
[17] = system: Candida albicans; experiment: Antifungal activity against Candida albicans ATCC SC5314 assessed as reduction in fungal growth density at 5 and 50 nmol/ml; format: functional, organism-based
[18] = biological target: T1, Squalene epoxidase ERG1 (Candida albicans); experiment: Inhibition of SE in Candida albicans ATCC SC5314 assessed as inhibition of ergosterol biosynthesis by measuring ergosterol content at 0.5 ug/ml incubated for 16 hrs by LC-MS analysis; parameters: scale not given: the % may be the effect or the level left
[19] = biological target: T1, Squalene epoxidase ERG1 (Candida albicans); experiment: Inhibition of SE in Candida albicans ATCC SC5314 assessed as inhibition of ergosterol biosynthesis by measuring ergosterol content at 0.125 ug/ml incubated for 16 hrs by LC-MS analysis; parameters: scale not given: the % may be the effect or the level left
[20] = biological target: T1, Squalene epoxidase ERG1 (Candida albicans); experiment: Inhibition of SE in Candida albicans ATCC SC5314 assessed as inhibition of ergosterol biosynthesis by measuring increase in squalene content at 0.5 ug/ml incubated for 16 hrs by LC-MS analysis relative to control; parameters: scale not given: the % may be the effect or the level left
[21] = biological target: T1, Squalene epoxidase ERG1 (Candida albicans); experiment: Inhibition of SE in Candida albicans ATCC SC5314 assessed as inhibition of ergosterol biosynthesis by measuring unknown sterol content at 0.125 ug/ml incubated for 16 hrs by LC-MS analysis; parameters: scale not given: the % may be the effect or the level left
[22] = system: Candida albicans; experiment: Antifungal activity against Candida albicans ATCC SC5314 assessed as cell wall disruption at 4 ug/ml measured upto 48 hrs by TEM analysis; format: functional, organism-based
[23] = biological target: T1, Squalene epoxidase ERG1 (Candida albicans); experiment: Inhibition of SE in Candida albicans ATCC SC5314 assessed as inhibition of ergosterol biosynthesis by measuring eburicol content at 0.5 ug/ml incubated for 16 hrs by LC-MS analysis; parameters: scale not given: the % may be the effect or the level left
[24] = biological target: T1, Squalene epoxidase ERG1 (Candida albicans); experiment: Inhibition of SE in Candida albicans ATCC SC5314 assessed as inhibition of ergosterol biosynthesis by measuring eburicol content at 4 ug/ml incubated for 16 hrs by LC-MS analysis; parameters: scale not given: the % may be the effect or the level left
[25] = biological target: T1, Squalene epoxidase ERG1 (Candida albicans); experiment: Inhibition of SE in Candida albicans ATCC SC5314 assessed as inhibition of ergosterol biosynthesis by measuring unknown sterol content at 4 ug/ml incubated for 16 hrs by LC-MS analysis; parameters: scale not given: the % may be the effect or the level left
[26] = biological target: T1, Squalene epoxidase ERG1 (Candida albicans); experiment: Inhibition of SE in Candida albicans ATCC SC5314 assessed as inhibition of ergosterol biosynthesis by measuring unknown sterol content at 0.5 ug/ml incubated for 16 hrs by LC-MS analysis; parameters: scale not given: the % may be the effect or the level left
[27] = system: Candida albicans; experiment: Antifungal activity against Candida albicans ATCC SC5314 assessed as exudation of internal materials from cells at 4 ug/ml measured upto 48 hrs by TEM analysis; format: functional, organism-based
[28] = system: Candida albicans; experiment: Antifungal activity against Candida albicans ATCC SC5314 assessed as reduction in cell division at 4 ug/ml measured upto 48 hrs by TEM analysis; format: functional, organism-based

| SMILES | MIC [1] [µg/mL] | MIC [2] [µg/mL] | MIC [3] [µg/mL] | MIC [4] [µg/mL] | MIC [5] [µg/mL] | MIC [6] [µg/mL] | MIC [7] [µg/mL] | MIC [8] [µg/mL] | MIC [9] [µg/mL] | MIC [10] [µg/mL] | also measured |
| --- | --- | --- | --- | --- | --- | --- | --- | --- | --- | --- | --- |
| CN(CC(=O)Nc1ccccc1)C(=O)c1ccc2c(c1)OCCO2 | 0.5 (≈ 1.53 µM) | 8 (≈ 24.5 µM) | 2 (≈ 6.13 µM) | 1 (≈ 3.06 µM) | 0.5 (≈ 1.53 µM) | – | – | – | – | – | – |
| CN(CC(=O)Nc1ccccc1)C(=O)c1cccc2ccccc12 | 0.5 (≈ 1.57 µM) | 8 (≈ 25.1 µM) | 0.25 (≈ 0.785 µM) | 0.25 (≈ 0.785 µM) | 0.5 (≈ 1.57 µM) | > 16 | 8 (≈ 25.1 µM) | 4 (≈ 12.6 µM) | > 16 | > 16 | – |
| CN(CC(=O)NCc1ccccc1)C(=O)c1ccc2c(c1)OCCO2 | 2 (≈ 5.88 µM) | > 16 | 0.5 (≈ 1.47 µM) | 0.5 (≈ 1.47 µM) | 0.5 (≈ 1.47 µM) | – | – | – | – | – | – |
| CN(CC(=O)Nc1ccccc1)C(=O)c1cccc2c1OCCO2 | 1 (≈ 3.06 µM) | > 16 | 0.5 (≈ 1.53 µM) | 0.5 (≈ 1.53 µM) | 1 (≈ 3.06 µM) | – | – | – | – | – | – |
| CN(CC(=O)NCc1ccccc1)C(=O)c1cccc2c1OCCO2 | 0.25 (≈ 0.734 µM) | 8 (≈ 23.5 µM) | 0.25 (≈ 0.734 µM) | 0.25 (≈ 0.734 µM) | 0.5 (≈ 1.47 µM) | > 16 | 4 (≈ 11.8 µM) | > 16 | 8 (≈ 23.5 µM) | > 16 | remaining at 1 h [11]: 87.3%; remaining at 2 h [12]: 83.5% |
| CN(CC(=O)NCc1ccccc1)C(=O)c1cccc2ccccc12 | 0.25 (≈ 0.752 µM) | 4 (≈ 12 µM) | 0.125 (≈ 0.376 µM) | 0.125 (≈ 0.376 µM) | 0.5 (≈ 1.5 µM) | 8 (≈ 24.1 µM) | 4 (≈ 12 µM) | 4 (≈ 12 µM) | > 16 | 4 (≈ 12 µM) | Activity [13]: 58.9%; Activity [14]: Active; Activity [15]: 9.8%; remaining at 1 h [11]: 94.5%; Activity [16]: 31.7%; Activity [17]: Active; Activity [18]: 63.9%; Activity [19]: 87.4%; Activity [20]: 29.5%; Activity [21]: 2.8%; remaining at 2 h [12]: 91.6%; Activity [22]: Active; Activity [23]: 1.6%; Activity [24]: 2.3%; Activity [25]: 7.1%; Activity [26]: 5%; Activity [27]: Active; Activity [28]: Active |
| OC(Cn1cncn1)(Cn1cncn1)c1ccc(F)cc1F [FLUCONAZOLE] | – | – | – | – | – | > 16 | > 16 | > 16 | > 16 | > 16 | – |
| CN(CC(=O)NCc1ccccc1)C(=O)c1ccc2ccccc2c1 | 0.25 (≈ 0.752 µM) | 8 (≈ 24.1 µM) | 0.5 (≈ 1.5 µM) | 0.5 (≈ 1.5 µM) | 0.25 (≈ 0.752 µM) | – | – | – | – | – | – |
| CN(C/C=C/c1ccccc1)Cc1cccc2ccccc12 [NAFTIFINE] | 0.5 (≈ 1.74 µM) | > 16 | 1 (≈ 3.48 µM) | 0.5 (≈ 1.74 µM) | 0.5 (≈ 1.74 µM) | 8 (≈ 27.8 µM) | 4 (≈ 13.9 µM) | > 16 | 8 (≈ 27.8 µM) | 8 (≈ 27.8 µM) | Activity [13]: 64.5%; Activity [15]: 14.8%; Activity [16]: 28.4%; Activity [18]: 62.9%; Activity [19]: 83.6%; Activity [20]: 31.5%; Activity [21]: 1.6%; Activity [23]: 0.7%; Activity [24]: 1.7%; Activity [25]: 5.4%; Activity [26]: 4.9% |
| CN(CC(=O)Nc1ccccc1)C(=O)c1ccc2ccccc2c1 | 2 (≈ 6.28 µM) | > 16 | 1 (≈ 3.14 µM) | 0.5 (≈ 1.57 µM) | 0.5 (≈ 1.57 µM) | – | – | – | – | – | – |
